Active and inactive are the calls of the source. The rule behind the calls is not given here.
Legend:
D(3) dopamine receptor [1] = biological target: T1, D(3) dopamine receptor (Homo sapiens, UniProt P35462)
Description: (§1) Displacement of [3H]N-methylspiperone from human dopamine D3 receptor by liquid scintillation counting

D(4) dopamine receptor = biological target: T2, D(4) dopamine receptor (Homo sapiens, UniProt P21917)
T2 sequence (P21917 whole entry): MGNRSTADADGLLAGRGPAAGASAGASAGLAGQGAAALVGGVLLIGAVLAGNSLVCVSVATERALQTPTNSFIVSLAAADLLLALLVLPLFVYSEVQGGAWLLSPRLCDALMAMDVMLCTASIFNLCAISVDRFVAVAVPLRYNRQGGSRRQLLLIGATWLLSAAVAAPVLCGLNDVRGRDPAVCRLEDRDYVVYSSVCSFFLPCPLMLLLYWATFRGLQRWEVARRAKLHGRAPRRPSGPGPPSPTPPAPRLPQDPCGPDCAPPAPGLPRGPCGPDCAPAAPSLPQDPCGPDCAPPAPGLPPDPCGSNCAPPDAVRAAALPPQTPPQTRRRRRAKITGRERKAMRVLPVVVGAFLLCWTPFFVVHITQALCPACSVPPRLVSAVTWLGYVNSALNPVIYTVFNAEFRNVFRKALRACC

D(2) dopamine receptor [2] = biological target: T3, D(2) dopamine receptor (Homo sapiens, UniProt P14416)
Description: (§2) Displacement of [3H]N-methylspiperone from human dopamine D2 receptor by liquid scintillation counting

D(2) dopamine receptor [3] = biological target: T3, D(2) dopamine receptor; remark: listed apart in the source
Description: as §2

D(3) dopamine receptor [4] = biological target: T1, D(3) dopamine receptor; remark: listed apart in the source
Description: as §1

[5] = biological target: T4, D(4) dopamine receptor (Homo sapiens) (UniProt P21917)
T4 sequence (whole entry): T2 sequence (P21917 whole entry)

T1 sequence (P35462 whole entry): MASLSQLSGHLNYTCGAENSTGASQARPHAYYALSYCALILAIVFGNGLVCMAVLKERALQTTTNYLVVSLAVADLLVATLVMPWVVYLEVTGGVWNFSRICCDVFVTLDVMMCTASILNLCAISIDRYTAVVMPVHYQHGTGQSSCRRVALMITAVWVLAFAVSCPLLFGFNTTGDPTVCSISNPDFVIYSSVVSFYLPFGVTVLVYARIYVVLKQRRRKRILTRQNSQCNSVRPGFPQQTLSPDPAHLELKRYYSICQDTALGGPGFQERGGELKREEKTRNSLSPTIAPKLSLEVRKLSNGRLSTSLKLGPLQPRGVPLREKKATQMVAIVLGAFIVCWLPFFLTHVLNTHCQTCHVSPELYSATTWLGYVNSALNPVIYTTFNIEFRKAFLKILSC
T3 sequence (P14416 whole entry): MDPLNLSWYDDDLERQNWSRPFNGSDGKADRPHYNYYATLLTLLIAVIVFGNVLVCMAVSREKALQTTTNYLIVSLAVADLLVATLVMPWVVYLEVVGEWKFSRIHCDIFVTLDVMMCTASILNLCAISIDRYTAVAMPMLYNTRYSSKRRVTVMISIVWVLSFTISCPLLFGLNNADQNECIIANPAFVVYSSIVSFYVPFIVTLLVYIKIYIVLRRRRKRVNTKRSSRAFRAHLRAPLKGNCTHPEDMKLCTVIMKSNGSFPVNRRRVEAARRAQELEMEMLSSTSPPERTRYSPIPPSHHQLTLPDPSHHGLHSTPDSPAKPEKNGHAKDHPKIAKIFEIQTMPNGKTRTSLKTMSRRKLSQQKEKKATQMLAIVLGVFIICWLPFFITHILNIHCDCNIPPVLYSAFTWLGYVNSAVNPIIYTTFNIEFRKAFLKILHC

With `O[C@]1(c2ccc(Cl)cc2)C[C@H]2CC[C@@H](C1)N2Cc1c[nH]c2ccccc12` the Ki (D(3) dopamine receptor [1]) was 25 nM and the Ki (D(4) dopamine receptor) was 3010 nM.

In the case of `Clc1ccc(N2CCCN(Cc3c[nH]c4ncccc34)CC2)cc1`, the Ki (D(2) dopamine receptor [2]) is reported as 970 nM, the Ki (D(3) dopamine receptor [1]) is reported as 370 nM and the Ki (D(4) dopamine receptor) is reported as 18.6 nM.

For `OC1(c2ccc(Cl)cc2)CCN(Cc2c[nH]c3ncccc23)C1` (stereo not drawn), the Activity (D(2) dopamine receptor [3]) was “inactive”, the Activity (D(3) dopamine receptor [4]) was “inactive” and the Ki (D(4) dopamine receptor) was 1210 nM.

With `Clc1ccc(N2CC3CC2CN3Cc2c[nH]c3ncccc23)cc1` (stereo not drawn) the Ki (D(2) dopamine receptor [2]) was 62 nM, the Ki (D(3) dopamine receptor [1]) was 11 nM and the Ki (D(4) dopamine receptor) was 69 nM.

For `OC1(c2ccc(Cl)cc2)CCN(CCc2c[nH]c3ccccc23)C1` (stereo not drawn), the Activity (D(2) dopamine receptor [3]) was “inactive”, the Ki (D(3) dopamine receptor [1]) was 3070 nM and the Activity [5] was “inactive”.

Work on `c1cnc(N2CCN(Cc3c[nH]c4ncccc34)CC2)nc1` yielded a Ki (D(2) dopamine receptor [2]) of 1170 nM, a Ki (D(3) dopamine receptor [1]) of 1500 nM and a Ki (D(4) dopamine receptor) of 56 nM.

With `OC1(c2ccc(Cl)cc2)CCN(Cc2c[nH]c3ccccc23)C1` (stereo not drawn) the Activity (D(2) dopamine receptor [3]) was “inactive”, the Ki (D(3) dopamine receptor [1]) was 2870 nM and the Ki (D(4) dopamine receptor) was 816 nM.

For `OC1(c2ccc(Cl)cc2)CC2CCC(C1)N2CCc1c[nH]c2ccccc12` (stereo not drawn), the Ki (D(2) dopamine receptor [2]) was 53 nM and the Ki (D(3) dopamine receptor [1]) was 18 nM.

In the case of `O=C(CN1C2CCC1CC(O)(c1ccc(Cl)cc1)C2)c1ccc(F)cc1` (stereo not drawn), the Ki (D(3) dopamine receptor [1]) is reported as > 10000 nM.

`OC1(c2ccc(Cl)cc2)CC2CCC(C1)N2Cc1c[nH]c2ncccc12` (stereo not drawn) was tested, and the Ki (D(2) dopamine receptor [2]) was 588 nM.

For `O=C(CCCN1CC2CC1N(c1ccc(Cl)cc1)C2)c1ccc(F)cc1` (stereo not drawn), the Ki (D(2) dopamine receptor [2]) was 170 nM, the Ki (D(3) dopamine receptor [1]) was 220 nM and the Ki (D(4) dopamine receptor) was 513 nM.

Compound `O=C(CCCN1CCN(c2ccc(Cl)cc2)CC1)c1ccc(F)cc1` has a Ki (D(4) dopamine receptor) of 17 nM.

Source: ChEMBL document CHEMBL1152692, “Synthesis and evaluation of ligands for D2-like receptors: the role of common pharmacophoric groups” (Bioorg Med Chem, 2009)
